Test results taken from patent US12077503B2, “Substituted cyclic amides and their use as herbicides” (FMC CORPORATION, priority 2015, dated 2024).

What was measured:
Format in all cases: in vivo
[1] = test system: ragweed (common ragweed, Ambrosia elatior); assay: Test A postemergence
Description: (§1) Seeds of plant species selected from barnyardgrass (Echinochloa crus-galli), Kochia (Kochia scoparia), ragweed (common ragweed, Ambrosia elatior), ryegrass, Italian (Italian ryegrass, Lolium multiflorum), crabgrass, large (Digitaria sanguinalis), giant foxtail (Setaria faberii), green foxtail (Setaria viridis), morningglory (Ipomoea spp.), pigweed (Amaranthus retroflexus), velvetleaf (Abutilon theophrasti), wheat (Triticum aestivum), and corn (Zea mays) were planted into a blend of loam soil and sand and treated preemergence with a directed soil spray using test chemicals formulated in anon-phytotoxic solvent mixture which included a surfactant.
(§2) At the same time, plants selected from these crop and weed species and also blackgrass (Alopecurus myosuroides), and Galium (catchweed bedstraw, Galium aparine) were planted in pots containing the same blend of loam soil and sand and treated with postemergence applications of test chemicals formulated in the same manner. Plants ranged in height from 2 to 10 cm and were in the one- to two-leaf stage for the postemergence treatment. Treated plants and untreated controls were maintained in a greenhouse for approximately 10 d, after which time all treated plants were compared to untreated controls and visually evaluated for injury. Plant response ratings, summarized in Table A, are based on a 0 to 100 scale where 0 is no effect and 100 is complete control. A dash (-) response means no test result.

[2] = test system: pigweed (Amaranthus retroflexus); assay: Test A postemergence
Description: as §1, §2

[3] = test system: Galium (catchweed bedstraw, Galium aparine); assay: Test A postemergence
Description: as §1, §2

[4] = test system: giant foxtail (Setaria faberii); assay: Test A postemergence
Description: as §1, §2

[5] = test system: ryegrass, Italian (Italian ryegrass, Lolium multiflorum); assay: Test A postemergence
Description: as §1, §2

[6] = test system: blackgrass (Alopecurus myosuroides); assay: Test A postemergence
Description: as §1, §2

corn (Zea mays) = assay: Test A postemergence
Description: as §1, §2

Kochia (Kochia scoparia) [7] = assay: Test A postemergence
Description: as §1, §2

[8] = test system: wheat (Triticum aestivum); assay: Test A postemergence
Description: as §1, §2

[9] = test system: barnyardgrass (Echinochloa crus-galli); assay: Test A postemergence
Description: as §1, §2

[10] = test system: ducksalad (Heteranthera limosa); assay: Test B flooded paddy test; conditions: Flood, 250 g ai/ha; 0 to 100 scale where 0 is no effect and 100 is complete control; 13 to 15 d
Protocol: (§3) Plant species in the flooded paddy test selected from rice (Oryra sativa), sedge, umbrella (small-flower umbrella sedge, Cyperus difformis), ducksalad (Heteranthera limosa), and barnyardgrass (Echinochloa crus-galli) were grown to the 2-leaf stage for testing. At time of treatment, test pots were flooded to 3 cm above the soil surface, treated by application of test compounds directly to the paddy water, and then maintained at that water depth for the duration of the test. Treated plants and controls were maintained in a greenhouse for 13 to 15 d, after which time all species were compared to controls and visually evaluated. Plant response ratings, summarized in Table B, are based on a scale of 0 to 100 where 0 is no effect and 100 is complete control. A dash (-) response means no test result.

rice (Oryra sativa) = assay: Test B flooded paddy test; conditions: Flood, 250 g ai/ha; 0 to 100 scale where 0 is no effect and 100 is complete control; 13 to 15 d
Protocol: as §3

[11] = test system: sedge, umbrella (small-flower umbrella sedge, Cyperus difformis); assay: Test B flooded paddy test; conditions: Flood, 250 g ai/ha; 0 to 100 scale where 0 is no effect and 100 is complete control; 13 to 15 d
Protocol: as §3

[12] = test system: barnyardgrass (Echinochloa crus-galli); assay: Test B flooded paddy test; conditions: Flood, 250 g ai/ha; 0 to 100 scale where 0 is no effect and 100 is complete control; 13 to 15 d
Protocol: as §3

[13] = test system: ragweed (common ragweed, Ambrosia elatior); assay: Test A preemergence; conditions: for Plant response rating, Ragweed: 125 g ai/ha, preemergence, 0 to 100 scale (0 no effect, 100 complete control); for Ragweed plant response rating (0 to 100 scale): Preemergence, 500 g ai/ha, 0 is no effect, 100 is complete control
Description: as §1, §2

[14] = test system: pigweed (Amaranthus retroflexus); assay: Test A preemergence; conditions: for Plant response rating, Pigweed: 125 g ai/ha, preemergence, 0 to 100 scale (0 no effect, 100 complete control); for Pigweed plant response rating (0 to 100 scale): Preemergence, 500 g ai/ha, 0 is no effect, 100 is complete control
Description: as §1, §2

[15] = test system: giant foxtail (Setaria faberii); assay: Test A preemergence; conditions: for Plant response rating, Foxtail, Giant: 125 g ai/ha, preemergence, 0 to 100 scale (0 no effect, 100 complete control); for Foxtail, Giant plant response rating (0 to 100 scale): Preemergence, 500 g ai/ha, 0 is no effect, 100 is complete control
Description: as §1, §2

[16] = test system: ryegrass, Italian (Italian ryegrass, Lolium multiflorum); assay: Test A preemergence; conditions: for Plant response rating, Ryegrass, Italian: 125 g ai/ha, preemergence, 0 to 100 scale (0 no effect, 100 complete control); for Ryegrass, Italian plant response rating (0 to 100 scale): Preemergence, 500 g ai/ha, 0 is no effect, 100 is complete control
Description: as §1, §2

Kochia (Kochia scoparia) [17] = assay: Test A preemergence; conditions: for Plant response rating, Kochia: 125 g ai/ha, preemergence, 0 to 100 scale (0 no effect, 100 complete control); for Kochia plant response rating (0 to 100 scale): Preemergence, 500 g ai/ha, 0 is no effect, 100 is complete control
Description: as §1, §2

[18] = test system: barnyardgrass (Echinochloa crus-galli); assay: Test A preemergence; conditions: for Plant response rating, Barnyardgrass: 125 g ai/ha, preemergence, 0 to 100 scale (0 no effect, 100 complete control); for Barnyardgrass plant response rating (0 to 100 scale): Preemergence, 500 g ai/ha, 0 is no effect, 100 is complete control
Description: as §1, §2

[19] = 500 g ai/ha, postemergence, 0 to 100 scale, 0 no effect, 100 complete control
[20] = Postemergence, 125 g ai/ha, visual injury, 0 to 100 scale (0 no effect, 100 complete control), approx. 10 d

O=C1NCC(c2cccc(F)c2)C1C(=O)Nc1ccccc1C(F)(F)F (racemic) [Compound 376]
20: Plant response rating, Ragweed [1, 19] | Plant response rating, Ryegrass, Italian [5, 19] | Plant response rating, Kochia (Kochia (Kochia scoparia) [7]; [19]) | Ryegrass, Italian plant response rating (0 to 100 scale) [16]
100: Plant response rating, Ducksalad [10]
30: Plant response rating, Galium [3, 19] | Plant response rating, Galium [3, 20] | Plant response rating, Corn (corn (Zea mays); [19])
0: Plant response rating, Ragweed [1, 20] | Plant response rating, Pigweed [2, 19] | Plant response rating, Pigweed [2, 20] | Plant response rating, Ryegrass, Italian [5, 20] | Plant response rating, Blackgrass [6, 20] | Plant response rating, Corn (corn (Zea mays); [20]) | Plant response rating, Kochia (Kochia (Kochia scoparia) [7]; [20]) | Plant response rating, Wheat [8, 19] | Plant response rating, Wheat [8, 20] | Plant response rating, Rice (rice (Oryra sativa)) | Plant response rating, Sedge, Umbrella [11] | Plant response rating, Ragweed [13] | Ragweed plant response rating (0 to 100 scale) [13] | Plant response rating, Pigweed [14] | Pigweed plant response rating (0 to 100 scale) [14] | Plant response rating, Ryegrass, Italian [16] | Plant response rating, Kochia (Kochia (Kochia scoparia) [17]) | Kochia plant response rating (0 to 100 scale) (Kochia (Kochia scoparia) [17])
40: Plant response rating, Blackgrass [6, 19]
70: Plant response rating, Barnyardgrass [12]
90: Plant response rating, Foxtail, Giant [4, 19] | Plant response rating, Foxtail, Giant [4, 20] | Plant response rating, Barnyardgrass [9, 19] | Plant response rating, Barnyardgrass [9, 20] | Plant response rating, Foxtail, Giant [15] | Foxtail, Giant plant response rating (0 to 100 scale) [15] | Plant response rating, Barnyardgrass [18] | Barnyardgrass plant response rating (0 to 100 scale) [18]

O=C1NCC(c2ccccc2-c2ccccc2)C1C(=O)Nc1ccccc1F (racemic) [Compound 381]
20: Plant response rating, Foxtail, Giant [4, 19] | Barnyardgrass plant response rating (0 to 100 scale) [18]
0: Plant response rating, Ragweed [1, 19] | Plant response rating, Ragweed [1, 20] | Plant response rating, Pigweed [2, 19] | Plant response rating, Pigweed [2, 20] | Plant response rating, Galium [3, 19] | Plant response rating, Galium [3, 20] | Plant response rating, Foxtail, Giant [4, 20] | Plant response rating, Ryegrass, Italian [5, 19] | Plant response rating, Ryegrass, Italian [5, 20] | Plant response rating, Blackgrass [6, 19] | Plant response rating, Blackgrass [6, 20] | Plant response rating, Corn (corn (Zea mays); [19]) | Plant response rating, Corn (corn (Zea mays); [20]) | Plant response rating, Kochia (Kochia (Kochia scoparia) [7]; [19]) | Plant response rating, Kochia (Kochia (Kochia scoparia) [7]; [20]) | Plant response rating, Wheat [8, 19] | Plant response rating, Wheat [8, 20] | Plant response rating, Barnyardgrass [9, 20] | Plant response rating, Ducksalad [10] | Plant response rating, Rice (rice (Oryra sativa)) | Plant response rating, Sedge, Umbrella [11] | Plant response rating, Barnyardgrass [12] | Plant response rating, Ragweed [13] | Ragweed plant response rating (0 to 100 scale) [13] | Plant response rating, Pigweed [14] | Pigweed plant response rating (0 to 100 scale) [14] | Plant response rating, Foxtail, Giant [15] | Plant response rating, Ryegrass, Italian [16] | Ryegrass, Italian plant response rating (0 to 100 scale) [16] | Plant response rating, Kochia (Kochia (Kochia scoparia) [17]) | Kochia plant response rating (0 to 100 scale) (Kochia (Kochia scoparia) [17]) | Plant response rating, Barnyardgrass [18]
30: Plant response rating, Barnyardgrass [9, 19] | Foxtail, Giant plant response rating (0 to 100 scale) [15]
